The values below come from ChEMBL document CHEMBL5150071, “BAY-7081: A Potent, Selective, and Orally Bioavailable Cyanopyridone-Based PDE9A Inhibitor” (J Med Chem, 2022).

Series [1] in a line: Induction of CYP3A4 mRNA expression in human hepatocytes at 9.2 uM incubated for 48 hrs with media replacement for […] by qPCR analysis. The class given is ADME, cell-based, Hepatocyte. (In qPCR the cycle at which signal appears reflects the starting amount.)
Series [2] deals with Cytochrome P450 2C9 (Homo sapiens, UniProt P11712). Nature of the series: Inhibition of CYP2C9 in human liver microsomes using diclofenac as substrate by LC-MS/MS analysis. The class given is ADME, Microsome. (Liver microsomes are a subcellular fraction often used to study metabolism.)
Series [3] is described as follows: Toxicity in rat assessed as increase in heart rate at 5 to 40 mg/kg, po administered once daily via gavage and measured every 5 mins by telemetry system based analysis. In kind it is organism-based. Conditions: in vivo, dose 5-40 mg/kg; call rule not given here.
A short description of series [4]: Solubility of compound in PBS at pH 7 incubated for 24 hrs by UV based HPLC analysis. The class given is physicochemical. Conditions: buffer, pH 7, 24 h.
Series [5] can be described thus: Protein binding in rat plasma assessed as fraction unbound incubated for 6 hrs by LC-MS/MS analysis. In kind it is ADME, cell-free.
Series [6] can be described thus: Oral bioavailability in Wistar rat at 1 mg/kg measured over 24 hrs by LC-MS/MS analysis. The class given is ADME, organism-based. Conditions: in vivo, po, 1 mg/kg, 24 h.
Series [7] can be described thus: Blood clearance in dog at 1 mg/kg, po or 0.3 mg/kg, iv measured over 24 hrs by LC-MS/MS analysis. The class given is ADME, organism-based, Canis lupus familiaris. To be noted: in vivo.
Series [8] is described as follows: Stability in human hepatocytes assessed as drug degradation incubated for 4 hrs. In kind it is ADME, cell-based, Hepatocyte.
Series [9] is described as follows: Volume of distribution at steady state in dog at 1 mg/kg, po or 0.3 mg/kg, iv measured over 24 hrs by LC-MS/MS analysis. In kind it is ADME, organism-based, Canis lupus familiaris. To be noted: in vivo.
For series [10], the target named is T1, High affinity cGMP-specific 3',5'-cyclic phosphodiesterase 9A (Mus musculus, UniProt O70628).
T1 sequence (O70628 whole entry): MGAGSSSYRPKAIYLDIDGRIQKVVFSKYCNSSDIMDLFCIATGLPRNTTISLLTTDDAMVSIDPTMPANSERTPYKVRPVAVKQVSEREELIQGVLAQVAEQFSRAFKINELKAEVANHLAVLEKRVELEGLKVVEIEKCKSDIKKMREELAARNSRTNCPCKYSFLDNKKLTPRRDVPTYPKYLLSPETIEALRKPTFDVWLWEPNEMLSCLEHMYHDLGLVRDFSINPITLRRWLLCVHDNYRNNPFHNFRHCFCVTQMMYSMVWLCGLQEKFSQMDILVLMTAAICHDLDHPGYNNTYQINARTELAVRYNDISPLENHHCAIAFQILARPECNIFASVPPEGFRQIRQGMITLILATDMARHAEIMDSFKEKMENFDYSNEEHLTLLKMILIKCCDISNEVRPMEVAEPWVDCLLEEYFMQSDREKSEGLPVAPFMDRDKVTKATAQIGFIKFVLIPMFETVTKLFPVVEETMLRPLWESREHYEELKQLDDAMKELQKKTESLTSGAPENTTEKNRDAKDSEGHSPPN
Nature of the series: Inhibition of mouse PDE9A expressed in recombinant CHO cells coexpressing soluble guanylate cyclase incubated for 6 mins by [3H]-cGMP scintillation proximity assay. In kind it is cell-based.

The nature of series [11]: Protein binding in monkey plasma assessed as fraction unbound incubated for 6 hrs by LC-MS/MS analysis. Conditions: rhesus monkey. In kind it is ADME, cell-free, Macaca mulatta.
Series [12] is described as follows: MRT in Wistar rat at 0.3 mg/kg, iv measured over 24 hrs by LC-MS/MS analysis. In kind it is ADME, organism-based. Conditions: in vivo.
A short description of series [13]: Blood clearance in Wistar rat at 1 mg/kg, po or 0.3 mg/kg, iv measured over 24 hrs by LC-MS/MS analysis. To be noted: in vivo. In kind it is ADME, organism-based.
A short description of series [14]: Volume of distribution at steady state in Wistar rat at 1 mg/kg, po or 0.3 mg/kg, iv measured over 24 hrs by LC-MS/MS analysis. In kind it is ADME, organism-based. To be noted: in vivo.
A short description of series [15]: MRT in dog at 0.3 mg/kg, iv measured over 24 hrs by LC-MS/MS analysis. The class given is ADME, organism-based, Canis lupus familiaris. Conditions: in vivo.
Series [16] is described as follows: Protein binding in mouse plasma assessed as fraction unbound incubated for 6 hrs by LC-MS/MS analysis. The class given is ADME, cell-free.
The nature of series [17]: Toxicity in rat assessed as increase in blood pressure at 5 to 40 mg/kg, po administered once daily via gavage and measured every 5 mins by telemetry system based analysis. To be noted: in vivo, dose 5-40 mg/kg. In kind it is organism-based.
The target of series [18] is High affinity cGMP-specific 3',5'-cyclic phosphodiesterase 9A (Homo sapiens, UniProt O76083). Nature of the series: Inhibition of full length human PDE9A expressed in Sf9 insect cells using [3H]-cGMP as substrate incubated for 60 mins by microbeta scintillation counter analysis.
Series [19] in a line: Protein binding in human plasma assessed as fraction unbound incubated for 6 hrs by LC-MS/MS analysis. The class given is ADME, cell-free.
A short description of series [20]: Oral bioavailability in dog at 1 mg/kg measured over 24 hrs by LC-MS/MS analysis. The class given is ADME, organism-based, Canis lupus familiaris. Conditions: in vivo.
Series [21] is described as follows: Protein binding in dog plasma assessed as fraction unbound incubated for 6 hrs by LC-MS/MS analysis. In kind it is ADME, cell-free, Canis lupus familiaris.

Sequence of Cytochrome P450 2C9 (P11712 whole entry): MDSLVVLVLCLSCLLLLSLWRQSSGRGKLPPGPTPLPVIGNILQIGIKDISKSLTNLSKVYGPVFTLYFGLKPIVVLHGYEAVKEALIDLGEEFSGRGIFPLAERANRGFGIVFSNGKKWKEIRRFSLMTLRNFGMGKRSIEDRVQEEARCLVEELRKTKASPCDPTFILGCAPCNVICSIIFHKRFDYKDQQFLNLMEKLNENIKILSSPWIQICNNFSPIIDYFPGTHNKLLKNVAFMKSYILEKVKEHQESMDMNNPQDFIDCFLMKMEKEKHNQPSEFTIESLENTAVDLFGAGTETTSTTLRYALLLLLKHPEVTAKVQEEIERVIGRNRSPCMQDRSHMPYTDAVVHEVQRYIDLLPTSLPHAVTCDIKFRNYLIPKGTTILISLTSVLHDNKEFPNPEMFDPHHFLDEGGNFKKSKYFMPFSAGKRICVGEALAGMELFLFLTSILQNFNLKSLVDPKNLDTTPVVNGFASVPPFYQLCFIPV
Sequence of High affinity cGMP-specific 3',5'-cyclic phosphodiesterase 9A (Homo sapiens, UniProt O76083) (O76083 whole entry): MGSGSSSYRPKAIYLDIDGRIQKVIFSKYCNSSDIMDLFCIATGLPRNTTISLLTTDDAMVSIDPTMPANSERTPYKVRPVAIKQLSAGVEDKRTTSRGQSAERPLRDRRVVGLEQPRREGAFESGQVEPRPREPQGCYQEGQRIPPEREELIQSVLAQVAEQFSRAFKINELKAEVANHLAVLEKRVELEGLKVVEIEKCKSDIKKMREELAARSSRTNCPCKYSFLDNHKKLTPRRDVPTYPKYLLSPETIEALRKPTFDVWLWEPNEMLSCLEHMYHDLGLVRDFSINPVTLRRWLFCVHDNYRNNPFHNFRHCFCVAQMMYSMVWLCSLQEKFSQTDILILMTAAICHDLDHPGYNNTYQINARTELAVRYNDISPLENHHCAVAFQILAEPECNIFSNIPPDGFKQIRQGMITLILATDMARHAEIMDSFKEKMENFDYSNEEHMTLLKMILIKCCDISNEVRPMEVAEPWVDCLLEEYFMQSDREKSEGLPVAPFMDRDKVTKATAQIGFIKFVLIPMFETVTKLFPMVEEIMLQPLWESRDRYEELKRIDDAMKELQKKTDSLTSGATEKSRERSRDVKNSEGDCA

Usually IC50 stands for the concentration needed to halve the response being measured. By solubility is commonly meant the concentration that dissolves in the medium under given conditions. As usually defined, the EC50 is the midpoint of the concentration-response curve. One may read the MRT as a mean duration of stay, worked out from the concentration-time curve. As to `CCCC1CNCc2c1[nH]c(=O)c(C#N)c2N1CCC2(CC1)CC2.Cl` (stereo in doubt; form 2), the Activity result was “Active” in series [1], “Non-Toxic” in series [3] and “Non-Toxic” in series [17]. The IC50 in series [2] is 16000 nM; in [18] it was 15 nM. In series [4], the solubility was > 500 µg/mL. Further, the Fu in [5] turned out to be 20%; in series [11] it was 42%; in series [16], 41%; in series [19], 34%; in [21], 43%. In addition, the F in series [6] was found to be 61%; in [20] it was 80%. For the same molecule, the values for the CL in series [7] and in [13] were 15 mL/min/kg and 40 mL/min/kg, respectively. In series [8], the Stability entry was “Stable”. For the same molecule, the Vdss came out at 3 L/kg in [9] and 4.5 L/kg in series [14]. Also, the EC50 in [10] was determined as 1000 nM. Also, the mean residence time MRT is 1.9 h in series [12] and 4 h in series [15].
